Laboratory results published in the supplement of paper PMC10307832.

Experiments:
Assay in all cases: relative viability (nuclei count vs DMSO), 5 days (fraction); higher = more cells survive
17-AAG + Luminespib = compound: C=CCNC1=C2C[C@@H](C)C[C@H](OC)[C@H](O)[C@@H](C)/C=C(\C)[C@H](OC(N)=O)[C@@H](OC)/C=C\C=C(/C)C(=O)NC(=CC1=O)C2=O [17-AAG] + CCNC(=O)c1noc(-c2cc(C(C)C)c(O)cc2O)c1-c1ccc(CN2CCOCC2)cc1 [Luminespib] (partner 0.01 µM)
In short: (§1)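 The day after seeding in 1536-well plates, lung cancer cell lines were treated by pin tool with a single drug, or with a fixed anchor-drug dose together with five library-drug doses (not always all listed) in √10 steps. After 5 days, a combined fix-and-stain solution (final 0.05% Triton X-100, 1% formaldehyde, 1 ug/ml Hoechst) was added. Nuclei counted on 4× images gave relative viability as treated counts over vehicle counts, reported as the median of duplicate plates.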

17-AAG + Decitabine = compound: C=CCNC1=C2C[C@@H](C)C[C@H](OC)[C@H](O)[C@@H](C)/C=C(\C)[C@H](OC(N)=O)[C@@H](OC)/C=C\C=C(/C)C(=O)NC(=CC1=O)C2=O [17-AAG] + Nc1ncn([C@H]2C[C@H](O)[C@@H](CO)O2)c(=O)n1 [Decitabine] (partner 2 µM)
In short: as §1

17-AAG + Dasatinib = compound: C=CCNC1=C2C[C@@H](C)C[C@H](OC)[C@H](O)[C@@H](C)/C=C(\C)[C@H](OC(N)=O)[C@@H](OC)/C=C\C=C(/C)C(=O)NC(=CC1=O)C2=O [17-AAG] + Cc1nc(Nc2ncc(C(=O)Nc3c(C)cccc3Cl)s2)cc(N2CCN(CCO)CC2)n1 [Dasatinib] (partner 0.075 µM)
In short: as §1

17-AAG + Foretinib = compound: C=CCNC1=C2C[C@@H](C)C[C@H](OC)[C@H](O)[C@@H](C)/C=C(\C)[C@H](OC(N)=O)[C@@H](OC)/C=C\C=C(/C)C(=O)NC(=CC1=O)C2=O [17-AAG] + COc1cc2c(Oc3ccc(NC(=O)C4(C(=O)Nc5ccc(F)cc5)CC4)cc3F)ccnc2cc1OCCCN1CCOCC1 [Foretinib] (partner 0.25 µM)
In short: as §1

Row | Cell Line | relative viability (17-AAG + Luminespib; first compound 0.00128 µM) | relative viability (17-AAG + Luminespib; first compound 0.004048 µM) | relative viability (17-AAG + Luminespib; first compound 0.0128 µM) | relative viability (17-AAG + Luminespib; first compound 0.04048 µM) | relative viability (17-AAG + Luminespib; first compound 0.128 µM) | relative viability (17-AAG + Decitabine; first compound 0.00128 µM) | relative viability (17-AAG + Decitabine; first compound 0.004048 µM) | relative viability (17-AAG + Decitabine; first compound 0.0128 µM) | relative viability (17-AAG + Decitabine; first compound 0.04048 µM) | relative viability (17-AAG + Decitabine; first compound 0.128 µM) | relative viability (17-AAG + Dasatinib; first compound 0.00128 µM) | relative viability (17-AAG + Dasatinib; first compound 0.004048 µM) | relative viability (17-AAG + Dasatinib; first compound 0.0128 µM) | relative viability (17-AAG + Dasatinib; first compound 0.04048 µM) | relative viability (17-AAG + Dasatinib; first compound 0.128 µM) | relative viability (17-AAG + Foretinib; first compound 0.00128 µM) | relative viability (17-AAG + Foretinib; first compound 0.004048 µM) | relative viability (17-AAG + Foretinib; first compound 0.0128 µM) | relative viability (17-AAG + Foretinib; first compound 0.04048 µM) | relative viability (17-AAG + Foretinib; first compound 0.128 µM)
1 | 201T | 1.06 | 1.03 | 0.96 | 0.913 | 0.431 | 0.842 | 0.838 | 0.811 | 0.804 | 0.71 | 0.551 | 0.618 | 0.438 | 0.352 | 0.262 | 1.11 | 1.06 | 0.503 | 0.194 | 0.175
2 | A549 |  |  |  |  |  | 0.123 | 0.271 | 0.128 | 0.0399 | 0.0274 |  |  |  |  |  | 0.963 | 0.815 | 0.55 | 0.0245 | 0.0282
3 | A-427 | 0.994 | 0.902 | 0.66 | 0.379 | 0.183 | 0.55 | 0.528 | 0.561 | 0.395 | 0.306 | 0.698 | 0.709 | 0.692 | 0.538 | 0.156 | 1.11 | 0.983 | 1.05 | 1.2 | 0.847
4 | ABC-1 | 0.439 | 0.758 | 0.565 | 0.38 | 0.238 | 1.08 | 1.16 | 1.24 | 1.2 | 0.666 | 0.607 | 0.666 | 0.633 | 0.514 | 0.392 | 0.9 | 0.882 | 1.08 | 1.05 | 0.432
5 | BEN | 0.33 | 0.408 | 0.206 | 0.241 | 0.194 | 0.613 | 0.712 | 0.759 | 0.446 | 0.288 | 0.354 | 0.376 | 0.469 | 0.298 | 0.232 | 0.626 | 0.767 | 0.649 | 0.517 | 0.411
6 | CAL-12T | 0.33 | 0.331 | 0.175 | 0.14 | 0.113 |  |  |  |  |  | 0.475 | 0.396 | 0.456 | 0.326 | 0.0959 | 1.12 | 1.07 | 1.08 | 0.608 | 0.202
7 | COR-L23 | 0.648 | 0.504 | 0.46 | 0.11 | 0.0893 | 0.328 | 0.52 | 0.432 | 0.351 | 0.138 | 0.58 | 0.451 | 0.504 | 0.313 | 0.0763 | 0.938 | 0.943 | 0.846 | 0.854 | 0.143
8 | COR-L 105 | 0.858 | 0.708 | 0.671 | 0.432 | 0.224 | 0.655 | 0.701 | 0.699 | 0.484 | 0.504 | 0.388 | 0.306 | 0.356 | 0.202 | 0.263 | 0.965 | 1 | 0.805 | 0.715 | 0.31
9 | Calu-6 |  |  |  |  |  |  |  |  |  |  |  |  |  |  |  | 0.833 | 0.899 | 0.754 | 0.249 | 0.121
10 | ChaGo-K-1 | 0.577 | 0.627 | 0.442 | 0.199 | 0.181 | 0.444 | 0.55 | 0.491 | 0.514 | 0.428 | 0.507 | 0.636 | 0.464 | 0.335 | 0.186 | 0.916 | 0.829 | 0.851 | 0.861 | 0.313
11 | EBC-1 |  |  |  |  |  |  |  |  |  |  |  |  |  |  |  | 0.101 | 0.13 | 0.138 | 0.104 | 0.0946
12 | EKVX | 0.879 | 0.857 | 0.742 | 0.187 | 0.13 | 0.351 | 0.284 | 0.257 | 0.162 | 0.139 | 0.414 | 0.542 | 0.472 | 0.343 | 0.229 | 0.895 | 0.805 | 0.175 | 0.192 | 0.131
13 | EMC-BAC-2 | 1.14 | 1.06 | 0.565 | 0.268 | 0.248 | 0.98 | 0.939 | 0.692 | 0.31 | 0.219 | 0.365 | 0.411 | 0.28 | 0.258 | 0.169 | 1.04 | 1.05 | 1.09 | 0.353 | 0.316
14 | EPLC-272H | 0.191 | 0.231 | 0.201 | 0.173 | 0.0978 | 0.367 | 0.352 | 0.307 | 0.158 | 0.0907 | 0.436 | 0.387 | 0.205 | 0.0643 | 0.0761 | 0.704 | 0.412 | 0.772 | 0.216 | 0.125
15 | H3255 | 0.716 | 0.872 | 0.536 | 0.203 | 0.208 | 0.788 | 0.566 | 0.488 | 0.231 | 0.198 | 0.427 | 0.345 | 0.374 | 0.204 | 0.207 | 0.943 | 0.874 | 0.819 | 0.252 | 0.249
16 | HARA | 0.831 | 0.544 | 0.757 | 0.525 | 0.207 | 0.517 | 0.57 | 0.617 | 0.569 | 0.232 | 0.234 | 0.278 | 0.261 | 0.284 | 0.141 | 0.884 | 0.911 | 0.865 | 0.792 | 0.455
17 | HCC-15 | 0.301 | 0.23 | 0.131 | 0.128 | 0.102 | 0.599 | 0.557 | 0.174 | 0.136 | 0.137 | 0.617 | 0.434 | 0.0928 | 0.0907 | 0.0837 | 0.907 | 0.718 | 0.29 | 0.137 | 0.12
18 | HCC-44 | 0.758 | 0.663 | 0.228 | 0.217 | 0.172 | 0.927 | 0.964 | 0.931 | 0.958 | 0.355 |  |  |  |  |  |  |  |  |  | 
